According to patent publication US9925274B2, “Delphinidin complex as an antiphlogistic or immunosuppressive active ingredient” (priority 2012, dated 2018):
Entries after “also recorded” stand apart in the source; their conditions may differ. Where two headings read alike, the source gives them in different places.

Tests used:
NFKB = assay: Concentration of NFKB in the nucleus of monocytes after stimulation with LPS and/or delphinidin (immunofluorescence nuclear staining; Examples 6-8); format: cell-based; set-up: Inhibitory effect on the cell immune response compared to hydrocortisone: dose or concentration left out as unconfirmed
Procedure: For healthy test subjects, the concentration of NFKB in the nucleus of monocytes after stimulation with LPS and/or delphinidin was assayed by means of immunofluorescence nuclear staining for NFKB and expressed in relation to nonstimulated cells. NFKB is activated by various stimuli, especially inflammatory and stress-associated stimuli.
The following procedure was carried out and shown in FIG. 1 from left to right, with the stimulation/incubation of the cells (1 ml in each case of RPMI-1640 comprising 1 million cells in the exponential growth phase) taking place at 37° C. in a well of a 24-well polystyrene cell culture dish and the specified concentrations being final concentrations: • “1.5 h 10 μg LPS”—Stimulation of the cells for 1.5 h with 10 μg/ml LPS (control) • “24 h prestim. 5 μM Del-Cl; 1.5 h 10 μg LPS”—24 h prestimulation of the cells with 5 μM delphinidin chloride (dissolved in RPMI-1640 cell medium) and then 1.5 h stimulation with 10 μg/ml LPS • “1.5 h 5 μM Del-Cl+10 μg LPS”—1.5 h simulation of the cells with 10 μg/ml LPS and 5 μM delphinidin chloride (dissolved in RPMI-1640 cell medium) • “24 h prestim. 5 μM Del-Cl; 1.5 h 5 μM Del-Cl”—24 h prestimulation of the cells with 5 μM delphinidin chloride (dissolved in RPMI-1640 cell medium) and then renewed stimulation with 5 μM delphinidin chloride (dissolved in RPMI-1640 cell medium) for 1.5 h • “24 h prestim. 5 μM Del-Cl; 1.5 h 5 μM Del-Cl+10 μg LPS”—24 h prestimulation of the cells with 5 μM delphinidin chloride (dissolved in RPMI-1640 cell medium) and then renewed stimulation with 5 μM delphinidin chloride (dissolved in RPMI-1640 cell medium) and 10 μg/ml LPS for 1.5 h
A procedure analogous to the methodology in example 5 was carried out and shown in FIGS. 2a and 2b from left to right, with the stimulation/incubation of the cells (1 ml in each case of RPMI-1640 comprising 1 million cells in the exponential growth phase) taking place at 37° C. in a well of a 24-well polystyrene cell culture dish and the specified concentrations being final concentrations:
FIG. 2a: • “1.5 h 10 μg LPS”—Stimulation of the cells for 1.5 h with 10 μg/ml LPS (control) • “1.5 h 5 μM Del-Cl+10 μg LPS”—1.5 h simulation of the cells with 10 μg/ml LPS and 5 μM delphinidin chloride (dissolved in RPMI-1640 cell medium) • “1.5 h hydrocortisone+10 μg LPS”—Stimulation of the cells for 10^−5 M hydrocortisone and 10 μg/ml LPS for 1.5 h
FIG. 2b: • “1.5 h 10 μg LPS”—Stimulation of the cells for 1.5 h with 10 μg/ml LPS (control) • “1.5 h 10 μM Del-Cl+10 μg LPS”—1.5 h simulation of the cells with 10 μg/ml LPS and 10 μM delphinidin chloride (dissolved in RPMI-1640 cell medium)
A procedure analogous to the methodology in examples 5 and 6 was carried out and shown in FIG. 3 from left to right, with the stimulation/incubation of the cells (1 ml in each case of RPMI-1640 comprising 1 million cells in the exponential growth phase) taking place at 37° C. in a well of a 24-well polystyrene cell culture dish and the specified concentrations being final concentrations: • “1.5 h 2.5 μM Del-Cl”—1.5 h stimulation of the cells with 2.5 μM delphinidin chloride (dissolved in RPMI-1640 cell medium) • “1.5 h 5 μM Del-Cl”—1.5 h simulation of the cells with 5 μM delphinidin chloride (dissolved in RPMI-1640 cell medium) • “1.5 h 10 μM Del-Cl”—1.5 h stimulation of the cells with 10 μM delphinidin chloride (dissolved in RPMI-1640 cell medium) • “1.5 h hydrocortisone”—1.5 h stimulation of the cells with […] hydrocortisone

[1] = tested on: tight junction protein claudin-5 mRNA expression in cEND cells; assay: claudin-5 mRNA expression in cEND cells with or without TNFα (Example 10); format: cell-based, murine
Excerpt: The surrogate marker used for the tightness of the barrier was the expression of the tight junction protein claudin-5 (Forster C. Tight junctions and the modulation of barrier function in disease. Histochem Cell Biol. 2008; 130: 55-70) and the procedure carried out was analogous to example 8.

[2] = Solubility of delphinidin chloride in aqueous cyclodextrin solutions (Example 1); conditions: neutral aqueous solution with 10% by weight cyclodextrin (β-CD 2%) or pure water; excess delphinidin chloride; stirred in the dark at 30° C. for 20 h; 0.22 μm filtration
[3] = tested on: Cc17 [chemokine (C—C motif) ligand 7] mRNA expression in cEND cells; conditions: for Effect on the TNFα-induced rise in Cc17 mRNA expression: TNFα 24 h
[4] = Stability experiments in aqueous solution: 0.9% NaCl, 37° C., delphinidin content by HPLC (Example 5); format: physicochemical; conditions: dark, start 1.584 mg/ml (complex) or 0.0216 mg/ml (uncomplexed)
Procedure: The content of delphinidin chloride in the delphinidin-containing solutions was determined by using a reverse-phase HPLC method similar to the one already described above. This used the following reagents: • Purified water • Methanol for chromatography • Formic acid, p. a. • 1 M Hydrochloric acid as volumetric solution.
The solutions were produced at room temperature and then stored in closed vials in the dark at 37° C.
After 1, 2, 3 and 4 h, the delphinidin content was determined. The table below specifies the ascertained content as a percentage of the above-stated starting concentration.

[5] = conclusion from the measured results

Oc1cc(O)c2cc(O)c(-c3cc(O)c(O)c(O)c3)[o+]c2c1.[Cl-] [delphinidin, Delphinidin chloride]
Inhibition of the LPS-mediated immune response (NFKB in the nucleus) (NFKB; 1.5 h 5 μM Del-Cl + 10 μg/ml LPS simultaneously, FIG. 1, FIG. 2a): inhibition of the immune response; also recorded: inhibited at least just as well as by means of addition of hydrocortisone
Inhibition of the LPS-mediated immune response (NFKB in the nucleus) (NFKB; 1.5 h 10 μM Del-Cl + 10 μg/ml LPS, repeat experiment FIG. 2b): significantly reduced
Inhibition of the cell immune response with varying concentration (NFKB in the nucleus) (NFKB; 1.5 h 2.5, 5 and 10 μM Del-Cl, without LPS, FIG. 3): increase in the delphinidin-mediated inhibition of the cell immune response (dose effect)
Inhibition of the LPS-mediated immune response (NFKB in the nucleus) (NFKB; 24 h prestimulation 5 μM Del-Cl, then 1.5 h 5 μM Del-Cl + 10 μg/ml LPS, FIG. 1): further intensified (additive effect)
Inhibition of the LPS-mediated immune response (NFKB in the nucleus) (NFKB; 24 h prestimulation with 5 μM Del-Cl, then 1.5 h 10 μg/ml LPS, FIG. 1): (weakly) inhibits
Inhibitory effect on the cell immune response compared to hydrocortisone (NFKB; appropriately high delphinidin concentration, 1.5 h, comparison hydrocortisone, FIG. 3): comparable to that of hydrocortisone
Effect on the TNFα-mediated decrease in claudin-5 mRNA expression ([1]; then delphinidin 0.1 μM, FIG. 5): counteracted this TNFα-mediated decrease
Effect on the TNFα-mediated decrease in claudin-5 mRNA expression ([1]; then delphinidin 1 μM, FIG. 5): counteracted this TNFα-mediated decrease
Barrier of the blood-brain barrier after inflammation [1, 5]: strongly increases
Effect on claudin-5 mRNA expression without prior TNFα exposure ([1]; delphinidin alone in the cell culture medium, FIG. 5): increase in claudin-5 mRNA expression
Attainable solubility, Delphinidin chloride [2]: 70 µg/mL
Effect on the TNFα-induced rise in Cc17 mRNA expression ([3]; then delphinidin 0.1 μM for a further 24 h, FIG. 4): distinct suppression or inhibition
Effect on the TNFα-induced rise in Cc17 mRNA expression ([3]; then delphinidin 1 μM for a further 24 h, FIG. 4): distinct suppression or inhibition
Antiphlogistic effect on the blood-brain barrier after inflammation relative to dexamethasone [3, 5]: at least equivalent
Effect on Cc17 expression without prior TNFα exposure ([3]; delphinidin alone in the cell culture medium, FIG. 4): suppression of Cc17 expression
Delphinidin content as a percentage of the starting concentration ([4]; 0 h): 100%
Delphinidin content as a percentage of the starting concentration ([4]; 1 h): 8.3%
Delphinidin content as a percentage of the starting concentration ([4]; 2 h): 6.5%
Delphinidin content as a percentage of the starting concentration ([4]; 3 h): 5.6%
Delphinidin content as a percentage of the starting concentration ([4]; 4 h): 5.1%

C[C@]12CCC(=O)C=C1CC[C@@H]1[C@@H]2[C@@H](O)C[C@@]2(C)[C@H]1CC[C@]2(O)C(=O)CO [hydrocortisone, reference compound]
Inhibition of the LPS-mediated immune response (NFKB in the nucleus) (NFKB; 1.5 h 10^−5 M hydrocortisone + 10 μg/ml LPS, FIG. 2a): inhibited
